Assay results reported in patent US9428503B2, “Imidazo[4,5-c]quinolin-2-one compounds and their use in treating Cancer” (AstraZeneca AB, priority 2014, dated 2016).
Counter-ions that a name gives are not always drawn.

Tests used:
Type in all cases: cell-based
ATR kinase = ATR kinase (Homo sapiens (Human), UniProt Q13535); assay: Assay b) ATR cellular potency assay (pChk1 Ser345 in HT29 cells treated with 4NQO); conditions: HT29 cells, pChk1 Ser345 after 4NQO; geometric mean where repeated; read-out: Assay b) ATR Cell IC50
ATM kinase = ATM kinase (Homo sapiens (Human), UniProt Q13315); assay: Assay a) ATM cellular potency assay (pATM Ser1981 in X-ray irradiated HT29 cells); conditions: HT29 cells, pATM Ser1981 after X-ray irradiation; geometric mean where repeated; read-out: Assay a) ATM Cell IC50
PI3K-α = PI3K-α (Homo sapiens, UniProt P42336); assay: Assay c) PI3K cellular potency assay (phospho-Akt T308 ELISA in BT474 cells); conditions: BT474 cells, phospho-Akt T308, 2 h; geometric mean where repeated; read-out: Assay c) PI3Kα Cell IC50
mTOR = mTOR (Homo sapiens (Human), UniProt P42345); assay: Assay d) mTOR cellular potency assay (phospho-AKT Ser473 in MDA-MB-468 cells); conditions: MDA-MB-468 cells, phospho-AKT Ser473, 2 h; geometric mean where repeated; read-out: Assay d) mTOR Cell IC50

Sequence of PI3K-α (P42336 whole entry, looked up): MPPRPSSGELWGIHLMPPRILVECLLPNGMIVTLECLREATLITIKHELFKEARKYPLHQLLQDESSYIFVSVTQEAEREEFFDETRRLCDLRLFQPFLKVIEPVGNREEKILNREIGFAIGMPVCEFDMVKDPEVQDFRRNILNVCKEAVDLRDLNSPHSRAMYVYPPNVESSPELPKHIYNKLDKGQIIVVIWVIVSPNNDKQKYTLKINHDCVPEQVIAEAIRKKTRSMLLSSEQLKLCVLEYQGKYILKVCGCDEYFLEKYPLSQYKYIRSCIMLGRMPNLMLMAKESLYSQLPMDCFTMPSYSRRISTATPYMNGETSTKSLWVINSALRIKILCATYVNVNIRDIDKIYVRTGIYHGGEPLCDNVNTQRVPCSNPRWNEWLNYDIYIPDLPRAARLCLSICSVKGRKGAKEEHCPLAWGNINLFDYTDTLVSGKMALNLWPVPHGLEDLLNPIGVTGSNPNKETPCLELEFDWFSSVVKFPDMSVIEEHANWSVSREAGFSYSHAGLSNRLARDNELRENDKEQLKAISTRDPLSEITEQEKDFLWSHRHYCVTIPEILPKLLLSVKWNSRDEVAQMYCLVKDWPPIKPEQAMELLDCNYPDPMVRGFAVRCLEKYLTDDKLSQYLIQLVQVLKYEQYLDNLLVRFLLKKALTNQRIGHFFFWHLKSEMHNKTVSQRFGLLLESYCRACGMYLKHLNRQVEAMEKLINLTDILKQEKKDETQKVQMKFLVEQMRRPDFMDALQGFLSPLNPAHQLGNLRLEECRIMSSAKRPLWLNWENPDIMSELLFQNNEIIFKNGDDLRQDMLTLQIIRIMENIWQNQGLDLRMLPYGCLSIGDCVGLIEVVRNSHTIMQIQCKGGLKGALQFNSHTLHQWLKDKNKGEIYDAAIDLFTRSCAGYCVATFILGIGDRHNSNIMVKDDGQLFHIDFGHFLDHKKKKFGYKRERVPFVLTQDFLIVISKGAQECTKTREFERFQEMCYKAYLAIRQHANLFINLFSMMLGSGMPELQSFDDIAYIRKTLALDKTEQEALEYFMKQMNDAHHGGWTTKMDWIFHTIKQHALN
Sequence of ATR kinase (Q13535 whole entry): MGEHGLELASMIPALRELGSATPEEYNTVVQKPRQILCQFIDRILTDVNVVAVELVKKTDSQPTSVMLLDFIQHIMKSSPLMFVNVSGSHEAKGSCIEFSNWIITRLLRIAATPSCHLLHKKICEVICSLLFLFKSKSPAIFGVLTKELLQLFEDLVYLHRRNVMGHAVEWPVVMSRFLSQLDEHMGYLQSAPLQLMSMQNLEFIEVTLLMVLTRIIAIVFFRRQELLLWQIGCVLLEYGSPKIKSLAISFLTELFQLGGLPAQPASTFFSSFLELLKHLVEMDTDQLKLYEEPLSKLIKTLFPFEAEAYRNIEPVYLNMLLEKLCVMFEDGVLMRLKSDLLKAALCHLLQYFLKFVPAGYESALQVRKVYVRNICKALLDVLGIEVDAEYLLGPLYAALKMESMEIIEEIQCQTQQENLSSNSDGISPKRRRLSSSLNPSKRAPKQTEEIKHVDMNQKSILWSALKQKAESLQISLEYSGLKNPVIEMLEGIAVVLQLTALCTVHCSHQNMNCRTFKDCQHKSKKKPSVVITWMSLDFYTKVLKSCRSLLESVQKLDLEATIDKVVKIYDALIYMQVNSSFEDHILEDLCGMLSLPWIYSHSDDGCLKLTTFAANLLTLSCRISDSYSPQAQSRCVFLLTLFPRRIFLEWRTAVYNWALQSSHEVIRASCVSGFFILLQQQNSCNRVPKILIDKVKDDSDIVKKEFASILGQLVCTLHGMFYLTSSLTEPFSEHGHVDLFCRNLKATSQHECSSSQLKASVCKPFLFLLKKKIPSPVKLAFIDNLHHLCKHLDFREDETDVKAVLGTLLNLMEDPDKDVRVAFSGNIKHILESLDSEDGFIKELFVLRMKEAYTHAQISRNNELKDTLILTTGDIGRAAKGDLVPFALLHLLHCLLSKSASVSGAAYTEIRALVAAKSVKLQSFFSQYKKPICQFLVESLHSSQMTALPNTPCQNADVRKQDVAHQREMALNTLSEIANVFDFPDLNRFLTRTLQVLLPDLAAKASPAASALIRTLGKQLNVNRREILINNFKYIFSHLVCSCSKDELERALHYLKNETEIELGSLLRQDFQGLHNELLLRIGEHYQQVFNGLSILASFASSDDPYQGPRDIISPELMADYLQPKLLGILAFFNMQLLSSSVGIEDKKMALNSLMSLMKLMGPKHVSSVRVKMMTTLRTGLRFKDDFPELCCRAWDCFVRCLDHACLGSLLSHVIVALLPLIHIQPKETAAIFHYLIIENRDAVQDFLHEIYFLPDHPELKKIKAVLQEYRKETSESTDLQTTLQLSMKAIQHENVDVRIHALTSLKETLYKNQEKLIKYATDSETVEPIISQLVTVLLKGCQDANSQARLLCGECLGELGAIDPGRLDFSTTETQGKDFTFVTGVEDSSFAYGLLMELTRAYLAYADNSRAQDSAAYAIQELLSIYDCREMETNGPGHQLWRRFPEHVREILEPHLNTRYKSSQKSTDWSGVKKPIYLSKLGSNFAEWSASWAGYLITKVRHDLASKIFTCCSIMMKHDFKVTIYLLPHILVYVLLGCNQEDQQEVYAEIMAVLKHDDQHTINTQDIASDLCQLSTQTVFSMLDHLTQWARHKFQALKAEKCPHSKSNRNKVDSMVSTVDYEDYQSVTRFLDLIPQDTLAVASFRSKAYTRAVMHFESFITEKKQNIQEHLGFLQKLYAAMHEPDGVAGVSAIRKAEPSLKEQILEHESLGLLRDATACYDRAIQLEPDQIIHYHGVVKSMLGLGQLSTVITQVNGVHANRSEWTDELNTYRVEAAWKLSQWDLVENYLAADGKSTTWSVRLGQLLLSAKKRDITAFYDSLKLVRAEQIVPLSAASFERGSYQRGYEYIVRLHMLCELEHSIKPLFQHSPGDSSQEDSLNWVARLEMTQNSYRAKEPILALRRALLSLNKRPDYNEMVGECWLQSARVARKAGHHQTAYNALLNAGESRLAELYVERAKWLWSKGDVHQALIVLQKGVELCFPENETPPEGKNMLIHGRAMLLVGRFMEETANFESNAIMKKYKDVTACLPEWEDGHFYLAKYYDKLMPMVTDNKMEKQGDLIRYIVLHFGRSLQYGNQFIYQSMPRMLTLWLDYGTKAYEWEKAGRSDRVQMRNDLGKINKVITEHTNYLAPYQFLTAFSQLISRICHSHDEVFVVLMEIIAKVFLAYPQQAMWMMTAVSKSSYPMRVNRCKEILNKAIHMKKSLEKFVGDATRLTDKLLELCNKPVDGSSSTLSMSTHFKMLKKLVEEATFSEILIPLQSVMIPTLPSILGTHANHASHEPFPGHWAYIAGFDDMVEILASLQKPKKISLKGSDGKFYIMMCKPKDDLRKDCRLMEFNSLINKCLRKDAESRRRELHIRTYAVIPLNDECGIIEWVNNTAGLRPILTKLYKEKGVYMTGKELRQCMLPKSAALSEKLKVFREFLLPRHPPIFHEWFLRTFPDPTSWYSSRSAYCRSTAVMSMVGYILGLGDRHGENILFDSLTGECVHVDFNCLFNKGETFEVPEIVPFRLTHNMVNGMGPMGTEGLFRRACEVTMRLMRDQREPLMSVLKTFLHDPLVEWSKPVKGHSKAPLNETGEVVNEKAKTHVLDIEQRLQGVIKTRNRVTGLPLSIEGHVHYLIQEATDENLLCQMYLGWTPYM
Sequence of ATR kinase (Q8WXE1 whole entry partner): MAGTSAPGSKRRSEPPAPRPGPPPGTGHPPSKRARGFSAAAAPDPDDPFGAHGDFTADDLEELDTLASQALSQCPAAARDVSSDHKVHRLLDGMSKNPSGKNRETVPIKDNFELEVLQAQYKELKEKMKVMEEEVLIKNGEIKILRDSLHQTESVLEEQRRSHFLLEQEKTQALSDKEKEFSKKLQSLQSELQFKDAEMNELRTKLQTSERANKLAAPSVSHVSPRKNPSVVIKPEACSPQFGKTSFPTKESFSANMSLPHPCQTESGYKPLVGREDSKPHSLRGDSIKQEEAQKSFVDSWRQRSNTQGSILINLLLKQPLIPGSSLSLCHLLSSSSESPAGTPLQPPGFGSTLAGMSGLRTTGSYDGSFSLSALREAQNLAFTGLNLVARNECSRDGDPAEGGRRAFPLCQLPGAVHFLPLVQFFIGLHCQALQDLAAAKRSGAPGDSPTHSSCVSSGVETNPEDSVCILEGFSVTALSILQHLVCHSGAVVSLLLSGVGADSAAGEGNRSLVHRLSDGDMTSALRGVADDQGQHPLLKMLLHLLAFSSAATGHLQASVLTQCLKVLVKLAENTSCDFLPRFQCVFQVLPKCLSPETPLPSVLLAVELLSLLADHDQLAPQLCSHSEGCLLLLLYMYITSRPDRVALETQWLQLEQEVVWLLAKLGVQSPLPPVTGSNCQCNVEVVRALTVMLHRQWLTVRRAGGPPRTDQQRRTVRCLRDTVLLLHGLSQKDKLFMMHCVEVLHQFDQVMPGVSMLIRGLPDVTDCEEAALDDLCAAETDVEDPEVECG

SMILES | IC50 (ATR kinase) | IC50 (ATM kinase) | IC50 (PI3K-α) | IC50 (mTOR)
CNCCCOc1ccc(-c2ccc3ncc4c(c3c2)n([C@H]2CCCOC2)c(=O)n4C)cn1 [Example 41, 3-methyl-8-[6-(3-methylaminopropoxy)pyridin-3-yl]-1-[(3S)-oxan-3-yl]imidazo[5,4-c]quinolin-2-one] | 3940 nM | 0.555 nM | 267 nM | 395 nM
CO[C@H]1CC[C@@H](n2c(=O)n(C)c3cnc4cc(F)c(-c5ccc(OCCCN(C)C)nc5)cc4c32)C1 [Example 70, 8-[6-[3-(dimethylamino)propoxy]-3-pyridyl]-7-fluoro-1-[(1R,3S)-3-methoxycyclopentyl]-3-methyl-imidazo[4,5-c]quinolin-2-one] | > 24900 nM | 2.43 nM | > 30000 nM | > 30000 nM
CO[C@H]1C[C@@H](n2c(=O)[nH]c3cnc4ccc(-c5ccc(OCCCN6CCCC6)nc5)cc4c32)C1 [Example 35, 1-(cis-3-methoxycyclobutyl)-8-[6-(3-pyrrolidin-1-ylpropoxy)pyridin-3-yl]-3H-imidazo[4,5-c]quinolin-2-one] | 17800 nM | 0.589 nM | 3000 nM | 579 nM
CN(C)CCCOc1ccc(-c2cc3c(cc2F)ncc2c3n([C@H]3CCCOC3)c(=O)n2C)c(F)n1 [Example 48, 8-[6-[3-(Dimethylamino)propoxy]-2-fluoro-3-pyridyl]-7-fluoro-3-methyl-1-[(3S)-tetrahydropyran-3-yl]imidazo[4,5-c]quinolin-2-one methanesulfonic acid salt] | > 30000 nM | 1.02 nM | > 9400 nM | 23000 nM
CO[C@@H]1CC[C@@H](n2c(=O)n(C)c3cnc4ccc(-c5ccc(OCCCN6CCCCC6)nc5)cc4c32)C1 [Example 64, 1-[(1R,3R)-3-Methoxycyclopentyl]-3-methyl-8-[6-[3-(1-piperidyl)propoxy]-3-pyridyl]imidazo[4,5-c]quinolin-2-one] | > 24100 nM | 0.741 nM | > 30000 nM | 12000 nM
Cn1c(=O)n([C@@H]2CCCOC2)c2c3cc(-c4ccc(OCCCN5CCCCC5)nc4)ccc3ncc21 [Example 32, 3-methyl-1-[(3R)-oxan-3-yl]-8-[6-(3-piperidin-1-ylpropoxy)pyridin-3-yl]imidazo[5,4-c]quinolin-2-one] | > 30000 nM | 1.78 nM | 2940 nM | 6100 nM
CO[C@H]1C[C@@H](n2c(=O)n(C)c3cnc4ccc(-c5ccc(OCCCN6CCC6)nc5)cc4c32)C1 [Example 38, 8-[6-[3-(azetidin-1-yl)propoxy]pyridin-3-yl]-1-(cis-3-methoxycyclobutyl)-3-methylimidazo[4,5-c]quinolin-2-one] | > 24400 nM | 0.292 nM | 729 nM | 2240 nM
CNCCCOc1ccc(-c2ccc3ncc4c(c3c2)n(C2CCOCC2)c(=O)n4C)cn1 [Example 40, 3-Methyl-8-[6-(3-methylaminopropoxy)pyridin-3-yl]-1-(oxan-4-yl)imidazo[5,4-c]quinolin-2-one] | 1330 nM | 0.567 nM | 184 nM | 191 nM
Cn1c(=O)n(C2CCC2)c2c3cc(-c4ccc(OCCCN5CCCC5)nc4)ccc3ncc21 [Example 58, 1-cyclobutyl-3-methyl-8-[6-(3-pyrrolidin-1-ylpropoxy)-3-pyridyl]imidazo[4,5-c]quinolin-2-one] | > 28100 nM | 0.31 nM | > 9560 nM | 7290 nM
Cn1c(=O)n([C@H]2C[C@@H](O)C2)c2c3cc(-c4ccc(OCCCN5CCCC5)nc4)ccc3ncc21 [Example 15, 1-(cis-3-hydroxycyclobutyl)-3-methyl-8-[6-(3-pyrrolidin-1-ylpropoxy)pyridin-3-yl]imidazo[4,5-c]quinolin-2-one] | > 30000 nM | 0.447 nM | 2390 nM | 2580 nM
CN(C)CCCOc1ccc(-c2ccc3ncc4c(c3c2)n([C@H]2CCOC2)c(=O)n4C)cn1 [Example 45, 8-[6-[3-(dimethylamino)propoxy]-3-pyridyl]-3-methyl-1-[(3S)-tetrahydrofuran-3-yl]imidazo[4,5-c]quinolin-2-one methanesulfonic acid salt] | 9600 nM | < 0.534 nM | 260 nM | 1190 nM

Continued, values first:

IC50 (ATR kinase) | IC50 (ATM kinase) | IC50 (PI3K-α) | IC50 (mTOR) | SMILES
> 30000 nM | 0.552 nM | 849 nM | 1370 nM | CN(C)CCCOc1ccc(-c2ccc3ncc4c(c3c2)n([C@@H]2CCCOC2)c(=O)n4C)c(F)n1 [Example 22, 8-[6-(3-dimethylaminopropoxy)-2-fluoropyridin-3-yl]-3-methyl-1-[(3R)-oxan-3-yl]imidazo[5,4-c]quinolin-2-one]
> 18800 nM | 0.69 nM | 7290 nM | > 9430 nM | Cn1c(=O)n([C@@H]2CCCOC2)c2c3cc(-c4ccc(OCCCN5CCCC5)nc4)c(F)cc3ncc21 [Example 24, 7-fluoro-3-methyl-8-[6-(3-pyrrolidin-1-ylpropoxy)-3-pyridyl]-1-[(3R)-tetrahydropyran-3-yl]imidazo[4,5-c]quinolin-2-one]
> 30000 nM | 3.02 nM | > 26300 nM | 12400 nM | Cn1c(=O)n(C2COC2)c2c3cc(-c4ccc(OCCCN5CCCCC5)nc4)ccc3ncc21 [Example 56, 3-methyl-1-(oxetan-3-yl)-8-[6-[3-(1-piperdyl)propoxy]-3-pyridyl]imidazo[4,5-c]quinolin-2-one trifluoroacetic acid salt]
2690 nM | 0.592 nM | 167 nM | 262 nM | CNCCCOc1ccc(-c2ccc3ncc4c(c3c2)n([C@@H]2CCCOC2)c(=O)n4C)cn1 [Example 43, 3-methyl-8-[6-[3-(methylamino)propoxy]-3-pyridyl]-1-[(3R)-tetrahydropyran-3-yl]imidazo[4,5-c]quinolin-2-one]
> 20700 nM | 0.315 nM | 1050 nM | 1190 nM | CO[C@@H]1CC[C@@H](n2c(=O)n(C)c3cnc4ccc(-c5ccc(OCCCN(C)C)nc5)cc4c32)C1 [Example 25, 8-[6-(3-Dimethylaminopropoxy)pyridin-3-yl]-1-[(1R,3R)-3-methoxycyclopentyl]-3-methylimidazo[4,5-c]quinolin-2-one]
> 30000 nM | 0.722 nM | 3200 nM | 5380 nM | CN(C)CCCOc1ccc(-c2ccc3ncc4c(c3c2)n(C2CCC2)c(=O)n4C)c(F)n1 [Example 51, 1-cyclobutyl-8-[6-[3-(dimethylamino)propoxy]-2-fluoro-3-pyridyl]-3-methyl-imidazo[4,5-c]quinolin-2-one methanesulfonic acid salt]
> 19200 nM | 1.07 nM | 560 nM | 2370 nM | CN(C)CCCOc1ccc(-c2ccc3ncc4c(c3c2)n([C@@H]2CCOC2)c(=O)n4C)cn1 [Example 44, 8-[6-[3-(Dimethylamino)propoxy]-3-pyridyl]-3-methyl-1-[(3R)-tetrahydrofuran-3-yl]imidazo[4,5-c]quinolin-2-one methanesulfonic acid salt]
> 30000 nM | 0.31 nM | 3280 nM | 10800 nM | CO[C@H]1CC[C@H](n2c(=O)n(C)c3cnc4cc(F)c(-c5ccc(OCCCN(C)C)nc5)cc4c32)C1 [Example 63, 8-[6-[3-(Dimethylamino)propoxy]-3-pyridyl]-7-fluoro-1-[(1S,3S)-3-methoxycyclopentyl]-3-methyl-imidazo[4,5-c]quinolin-2-one]
> 25200 nM | 1.03 nM | 769 nM | 540 nM | CO[C@H]1C[C@@H](n2c(=O)[nH]c3cnc4ccc(-c5ccc(OCCCN(C)C)nc5)cc4c32)C1 [Example 12, 8-[6-(3-dimethylaminopropoxy)pyridin-3-yl]-1-(cis-3-methoxycyclobutyl)-3H-imidazo[4,5-c]quinolin-2-one]
